Format in all cases: cell-based
The test system of one data set is HTB-54 (lung carcinoma). As to the kind of experiment: MTT viability assay, HTB-54. As to conditions: HTB-54, 72 h, MTT; for CC50: read-out: LC50 (the source's name). The method, boiled down: (§1)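 Cells (10,000/well; RPMI or, for BEAS-2B, DMEM with 10% FBS; 37 °C, 5% CO2) were treated 72 h with six concentrations from 0.1 to 100 μM, diluted from 0.01 M DMSO stock. MTT was added for 4 h, formazan dissolved in DMSO, absorbance read at 550 nm; GI50, TGI and LC50 derived.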
For orientation: Tetrazolium assays rely on reduction of a dye to a coloured formazan, in cell work by metabolically active cells.

For data set [1], the system named is K-562 (chronic myelogenous leukemia). As to the kind of experiment: MTT viability assay, K-562. As to conditions: K-562, 72 h, MTT; for CC50: read-out: LC50 (the source's name). The method, boiled down:
as §1

Data set [2] concerns MCF7 (mammary adenocarcinoma). The experiment in a line: MTT viability assay, MCF7. As to conditions: MCF7, 72 h, MTT; for CC50: read-out: LC50 (the source's name). Summed up: as §1
Data set [3] has as its system PC-3 (prostate adenocarcinoma). As to the kind of experiment: MTT viability assay, PC-3. As to conditions: PC-3, 72 h, MTT; for CC50: read-out: LC50 (the source's name). The method, boiled down: as §1
Data set [4] concerns HT-29 (colorectal adenocarcinoma). As to the kind of experiment: MTT viability assay, HT-29. The note with it: HT-29, 72 h, MTT; for CC50: read-out: LC50 (the source's name). The method, boiled down: as §1
Data set [5] deals with BEAS-2B (non-malignant bronchial epithelial). As to the kind of experiment: MTT viability assay, BEAS-2B. The note with it: BEAS-2B non-malignant, 72 h, MTT; for CC50: read-out: LC50 (the source's name). Summed up:
as §1

Another data set deals with MCF7 cells. As to the kind of experiment: Cell death analysis (TUNEL, Apo-Direct kit, flow cytometry). The note with it: for cell death time dependence: MCF7, time-course, 15 μM compound 5 or 30 μM compound 15, TUNEL; for dead cells: MCF7, 30 μM, TUNEL. As to the method: Induction of cell death is the major aim of antitumor drugs. We analyzed cell death progression using the TUNEL technique (in the Apo-Direct kit), which is based on DNA fragmentation. MCF7 cells were treated with increasing concentrations of compounds 5 and 15 for 24 h or with 30 μM of compound 15 or 15 μM of compound 5 for different times. The negative control was treated with vehicle, and camptothecin (6 μM) was included as a positive control.
3 × 10^6 or 2 × 10^6 MCF7 cells were seeded in 25 cm^2 flasks for treatments up to 24 h or 48 h, respectively. DMSO (vehicle) or the dissolved compounds were added 24 h after seeding and cells were incubated for different times at 37 °C under 5% CO2. Cell cycle and cell death were analyzed simultaneously with the Apo-Direct kit (BD Pharmingen, Madrid, Spain), following the manufacturer’s protocol. Briefly, cells were fixed in 1% paraformaldehyde for 45 min at 0 °C, washed with PBS and incubated for at least 30 min in 70% ethanol on ice. Cells were then stained both with FITC-dUTP (1 h, 37 °C) and propidium iodide (30 min, room temperature) and analyzed by flow cytometry using a Coulter Epics XL cytometer (Beckman Coulter, Brea, CA, USA).
Figure 5 Cell death induction is dose and time-dependent for compound 15 in MCF7. MCF7 cells were treated with vehicle (control) or increasing doses of compound 5 or 15 for 24 h. For the time-course experiment, MCF7 cells were treated with vehicle (control), compound 5 (15 μM) or compound 15 (30 μM) for different times. Camptothecin (6 μM) was included as positive control. Cells were stained with the Apo-Direct kit (TUNEL assay) and analyzed by flow cytometry. (A) Dose-dependent cell death at 24 h; (B) Time-course analysis of cell death.

Where “and” joins values, the source holds several entries; their conditions need not be identical. Identical values can stand only once.

What is called GI50 is the concentration at which growth is held to half of that of the control. A higher GI50 goes with lower sensitivity of the cells. The TGI is the concentration at which net growth stops. Higher therefore signals lower sensitivity of the cells.

As to “Methyl 3-chlorothiophen-2-carboselenoate [Compound 5]”, the GI50 is 4.9 ± 0.2 µM with HTB-54 (lung carcinoma); 38.7 ± 2.1 µM in data set [1]; 3.1 ± 0.9 µM in data set [2]; 8.6 ± 1.7 µM in data set [3]; 3.6 ± 0.3 µM in data set [4]; 2.7 ± 0.5 µM in data set [5]. For the same substance, the CC50 stood at 61.5 ± 3.2 µM with HTB-54 (lung carcinoma); 95.2 ± 2.2 µM in data set [1]; 35.9 ± 4.4 µM in data set [2]; 91.6 ± 3.9 µM in data set [3]; 8.9 ± 0.2 µM in data set [4]; 8 ± 1 µM in data set [5]. Further, the total growth inhibition concentration (TGI) in data set [1] turned out to be 67.0 ± 1.9 µM; in data set [2] it was 6.9 ± 1.1 µM; in data set [3] it was 47.7 ± 2.9 µM; in data set [4] it was 6.3 ± 0.2 µM; in data set [5], 5.3 ± 0.7 µM. For the same substance, in the data set with MCF7 cells, the “cell death time dependence” value is “highest values of cell death for compound 5 were observed after 4 h treatment”.

For the substance “Dimethyl 2,5-furandicarboselenoate [Compound 15]”, the GI50 was > 10 µM and 15.6 µM in the data set with HTB-54 (lung carcinoma); 42 ± 3.8 µM in data set [1]; 1.8 ± 0.9 µM in data set [2]; 4.8 ± 0.8 µM in data set [3]; 3 ± 0.5 µM in data set [4]; 2.6 ± 0.8 µM in data set [5]. In addition, the TGI was found to be 46.0 ± 3.0 µM with HTB-54 (lung carcinoma); 70.6 ± 3.4 µM in data set [1]; 7.2 ± 1.9 µM in data set [2]; 6.6 ± 0.4 µM in data set [4]; 5.6 ± 0.9 µM in data set [5]. Also, the CC50 was determined as 76.3 ± 1.1 µM with HTB-54 (lung carcinoma); 99.2 ± 5.3 µM in data set [1]; 57 ± 4 µM in data set [2]; 47.8 ± 4.4 µM in data set [3]; 35.8 ± 5 µM in data set [4]; 8.6 ± 1.2 µM in data set [5]. Further, the figures for the dead cells with MCF7 cells (4 h) and with MCF7 cells (48 h) were 20% and 80%, respectively. The “cell death time dependence” value with MCF7 cells is given as “caused cell death in a time-dependent manner”.

The record behind these values is publication PMC6152192, “Novel Methylselenoesters as Antiproliferative Agents” (Molecules : A Journal of Synthetic Chemistry and Natural …, 2017).
